Key:
[1] = target: T1, human vasopressin V1a receptor (Homo sapiens, UniProt P37288); assay: Human vasopressin V1a receptor binding assay; conditions: 1321N1 cell membranes, [3H]vasopressin; read-out: Ki (nM) on hV1a cell line
Summary of the method: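 Radioligand competition on membranes from cells expressing human V1a receptor; incubation 60 minutes at 27° C., non-specific binding with 1.2×10^−6 M unlabeled (Arg^8)-vasopressin, filtration separation. Ki by Cheng-Prusoff using Scatchard-derived KD, from at least two independent experiments.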

[2] = target: T1, human vasopressin V1a receptor; assay: Functional assay on human vasopressin V1a receptor expressing cell line (intracellular Ca2+ fluorescence); assay type: cell-based; conditions: 1321N1 cells, (Arg8)-vasopressin at EC80; read-out: IC50 (nM) on hV1a cell line

T1 sequence (P37288 whole entry): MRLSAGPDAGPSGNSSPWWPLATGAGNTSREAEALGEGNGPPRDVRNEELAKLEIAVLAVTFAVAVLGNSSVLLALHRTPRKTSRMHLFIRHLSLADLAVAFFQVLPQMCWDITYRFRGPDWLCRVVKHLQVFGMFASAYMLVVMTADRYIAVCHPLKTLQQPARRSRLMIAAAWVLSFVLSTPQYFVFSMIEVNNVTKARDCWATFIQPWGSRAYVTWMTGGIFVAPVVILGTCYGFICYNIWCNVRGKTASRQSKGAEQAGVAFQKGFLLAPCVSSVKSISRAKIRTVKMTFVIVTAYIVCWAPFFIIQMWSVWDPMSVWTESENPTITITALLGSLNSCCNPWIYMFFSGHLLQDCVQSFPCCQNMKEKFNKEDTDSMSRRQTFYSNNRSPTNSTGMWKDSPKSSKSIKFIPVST

Row | SMILES | Ki [1] | IC50 [2]
1 | O=C(N[C@H]1Cc2cc(Cl)ccc2-n2c(nnc2[C@H]2CC[C@H](Oc3ccccn3)CC2)C1)C1CC(F)(F)C1 [Example 210, N-{(5S)-8-chloro-1-[trans-4-(pyridin-2-yloxy)cyclohexyl]-5,6-dihydro-4H-[1,2,4]triazolo[4,3-a][1]benzazepin-5-yl}-3,3-difluorocyclobutanecarboxamide] | 56 nM | 292 nM
2 | C#CCOC1Cc2cc(Cl)ccc2-n2c(nnc2[C@H]2CC[C@H](Oc3ccccn3)CC2)C1 (stereo partly drawn) [Example 211, 8-chloro-5-(prop-2-yn-1-yloxy)-1-[trans-4-(pyridin-2-yloxy)cyclohexyl]-5,6-dihydro-4H-[1,2,4]triazolo[4,3-a][1]benzazepine] | 0.7 nM | 1.3 nM
3 | O=C(OC1Cc2cc(Cl)ccc2-n2c(nnc2[C@H]2CC[C@H](Oc3ccccn3)CC2)C1)C1CCC(F)(F)CC1 (stereo partly drawn) [Example 212, 8-chloro-1-[trans-4-(pyridin-2-yloxy)cyclohexyl]-5,6-dihydro-4H-[1,2,4]triazolo[4,3-a][1]benzazepin-5-yl 4,4-difluorocyclohexanecarboxylate] | 2.8 nM | 34 nM
4 | O=C(OC1Cc2cc(Cl)ccc2-n2c(nnc2[C@H]2CC[C@H](Oc3ccccn3)CC2)C1)C1CC(F)(F)C1 (stereo partly drawn) [Example 213, 8-chloro-1-[trans-4-(pyridin-2-yloxy)cyclohexyl]-5,6-dihydro-4H-[1,2,4]triazolo[4,3-a][1]benzazepin-5-yl 3,3-difluorocyclobutanecarboxylate] | 0.6 nM | 5.5 nM
5 | O=C(N[C@H]1Cc2cc(Cl)ccc2-n2c(nnc2[C@H]2CC[C@H](Oc3ccccn3)CC2)C1)C1CCC(F)(F)CC1 [Example 214, N-{(5S)-8-chloro-1-[trans-4-(pyridin-2-yloxy)cyclohexyl]-5,6-dihydro-4H-[1,2,4]triazolo[4,3-a][1]benzazepin-5-yl}-4,4-difluorocyclohexanecarboxamide] | 66 nM | 672 nM
6 | N#CCC(=O)OC1Cc2cc(Cl)ccc2-n2c(nnc2[C@H]2CC[C@H](Oc3ccccn3)CC2)C1 (stereo partly drawn) [Example 215, 8-chloro-1-[trans-4-pyridin-2-yloxy)cyclohexyl]-5,6-dihydro-4H-[1,2,4]triazolo[4,3-a][1]benzazepin-5-yl cyanoacetate] | 0.2 nM | 3.7 nM
7 | CN(C)CC(=O)OC1Cc2cc(Cl)ccc2-n2c(nnc2[C@H]2CC[C@H](Oc3ccccn3)CC2)C1 (stereo partly drawn) [Example 216, 8-chloro-1-[trans-4-(pyridin-2-yloxy)cyclohexyl]-5,6-dihydro-4H-[1,2,4]triazolo[4,3-a][1]benzazepin-5-yl N,N-dimethylglycinate] | 0.7 nM | 1.5 nM
8 | O=C(N[C@@H]1Cc2cc(Cl)ccc2-n2c(nnc2[C@H]2CC[C@H](Oc3ccccn3)CC2)C1)C(F)(F)F [Example 217, N-{(5R)-8-chloro-1-[trans-4-(pyridin-2-yloxy)cyclohexyl]-5,6-dihydro-4H-[1,2,4]triazolo[4,3-a][1]benzazepin-5-yl}-2,2,2-trifluoroacetamide] | 0.3 nM | 1.4 nM
9 | COC1Cc2cc(Cl)ccc2-n2c(nnc2[C@H]2CC[C@@H](N3CCCC3=O)CC2)C1 (stereo partly drawn) [Example 218, 1-[cis-4-(8-chloro-5-methoxy-5,6-dihydro-H-[1,2,4]triazolo[4,3-a][1]benzazepin-1-yl)cyclohexyl]pyrrolidin-2-one] | 97 nM | 1250 nM
10 | COC1Cc2cc(Cl)ccc2-n2c(nnc2[C@H]2CC[C@H](N3CCCC3=O)CC2)C1 (stereo partly drawn) [Example 219, 1-[trans-4-(8-chloro-5-methoxy-5,6-dihydro-4H-[1,2,4]triazolo[4,3-a][1]benzazepin-1-yl)cyclohexyl]pyrrolidin-2-one] | 0.2 nM | 22 nM
11 | O=C(N[C@@H]1Cc2cc(Cl)ccc2-n2c(nnc2[C@H]2CC[C@H](Oc3ccccn3)CC2)C1)C1CC(F)(F)C1 [Example 220, N-{(5R)-8-chloro-1-[trans-4-(pyridin-2-yloxy)cyclohexyl]-5,6-dihydro-4H-[1,2,4]triazolo[4,3-a][1]benzazepin-5-yl}-3,3-difluorocyclobutanecarboxamide] | 0.4 nM | 2.6 nM
12 | O=C(N[C@@H]1Cc2cc(Cl)ccc2-n2c(nnc2[C@H]2CC[C@H](Oc3ccccn3)CC2)C1)C1CCC(F)(F)CC1 [Example 221, N-{(5R)-8-chloro-1-[trans-4-(pyridin-2-yloxy)cyclohexyl]-5,6-dihydro-4H-[1,2,4]triazolo[4,3-a][1]benzazepin-5-yl}-4,4-difluorocyclohexanecarboxamide] | 0.9 nM | 9.8 nM
13 | COC1Cc2cc(Cl)ccc2-n2c(nnc2[C@H]2CC[C@](OC)(C(F)(F)F)CC2)C1 (stereo partly drawn) [Example 222, 8-chloro-5-methoxy-1-[cis-4-methoxy-4-(trifluoromethyl)cyclohexyl]-5,6-dihydro-4H-[1,2,4]triazolo[4,3-a][1]benzazepine] | 5.8 nM | 40 nM
14 | COC1Cc2cc(Cl)ccc2-n2c(nnc2[C@H]2CC[C@@](OC)(C(F)(F)F)CC2)C1 (stereo partly drawn) [Example 223, 8-chloro-5-methoxy-1-[trans-4-methoxy-4-(trifluoromethyl)cyclohexyl]-5,6-dihydro-4H-[1,2,4]triazolo[4,3-a][1]benzazepine] | 1.6 nM | 8.1 nM
15 | FC(F)(F)CN[C@H]1Cc2cc(Cl)ccc2-n2c(nnc2[C@H]2CC[C@H](Oc3ccccn3)CC2)C1 [Example 224, (5S)-8-chloro-1-[trans-4-(pyridin-2-yloxy)cyclohexyl]-N-(2,2,2-trifluoroethyl)-5,6-dihydro-4H-[1,2,4]triazolo[4,3-a][1]benzazepin-5-amine] | 0.7 nM | 3.6 nM
16 | CC1(C(=O)N[C@H]2Cc3cc(Cl)ccc3-n3c(nnc3[C@H]3CC[C@H](Oc4ccccn4)CC3)C2)COC1 [Example 225] | 48 nM | 854 nM
17 | CC1(C(=O)N[C@@H]2Cc3cc(Cl)ccc3-n3c(nnc3[C@H]3CC[C@H](Oc4ccccn4)CC3)C2)COC1 [Example 226, N-{(5R)-8-chloro-1-[trans-4-(pyridin-2-yloxy)cyclohexyl]-5,6-dihydro-4H-[1,2,4]triazolo[4,3-a][1]benzazepin-5-yl}-3-methyloxetan-3-carboxamide] | 0.5 nM | 4.2 nM
18 | COc1ccc(CN[C@H]2CC[C@H](c3nnc4n3-c3ccc(Cl)cc3CC3(C4)OCCO3)CC2)cc1 [Example 227, Trans-4-(8′-chloro-4′H,6′H-spiro[1,3-dioxolane-2,5′-[1,2,4]triazolo[4,3-a][1]benzazepin]-1′-yl)-N-(4-methoxybenzyl)cyclohexanamine] | 1 nM | 51 nM
19 | CC(C)(C)OC(=O)NCCN[C@@H]1Cc2cc(Cl)ccc2-n2c(nnc2[C@H]2CC[C@H](Oc3ccccn3)CC2)C1 [Example 228, Tert-butyl [2-({(5R)-8-chloro-1-[trans-4-(pyridin-2-yloxy)cyclohexyl]-5,6-dihydro-4H-[1,2,4]triazolo[4,3-a][1]benzazepin-5-yl}amino)ethyl]carbamate] | 0.8 nM | 6.1 nM
20 | CCO[C@]1(CC)CC[C@@H](c2nnc3n2-c2ccc(Cl)cc2CC2(C3)OCCO2)CC1 [Example 229, 8′-chloro-1′-(trans-4-ethoxy-4-ethylcyclohexyl)-4′H,6′H-spiro[1,3-dioxolane-2,5′-[1,2,4]triazolo[4,3-a][1]benzazepine]] | 0.4 nM | 2.1 nM
21 | COc1ccc(CN(C)[C@H]2CC[C@H](c3nnc4n3-c3ccc(Cl)cc3CC3(C4)OCCO3)CC2)cc1 [Example 230, Trans-4-(8′-chloro-4′H,6′H-spiro[1,3-dioxolane-2,5′-[1,2,4]triazolo[4,3-a][1]benzazepin]-1′-yl)-N-(4-methoxybenzyl)-N-methylcyclohexanamine] | 0.7 nM | 12 nM
22 | Clc1ccc2c(c1)CC1(Cc3nnc(C4CCN(Cc5cccnc5)C4)n3-2)OCCO1 (stereo not drawn) [Example 231, 8′-chloro-1′-[1-(pyridin-3-ylmethyl)pyrrolidin-3-yl]-4′H,6′H-spiro[1,3-dioxolane-2,5′-[1,2,4]triazolo[4,3-a][1]benzazepine]] | 1.1 nM | 5.9 nM
23 | COC1Cc2cc(Cl)ccc2-n2c(nnc2N2CCN(c3ccccn3)CC2)C1 (stereo not drawn) [Example 232, 8-chloro-5-methoxy-1-[4-(pyridin-2-yl)piperazin-1-yl]-5,6-dihydro-4H-[1,2,4]triazolo[4,3-a][1]benzazepine] | 1.3 nM | 9.2 nM
24 | CC[C@]1(OC)CC[C@H](c2nnc3n2-c2ccc(Cl)cc2CC(N(C)C)C3)CC1 (stereo partly drawn) [Example 233, 8-chloro-1-(trans-4-ethyl-4-methoxycyclohexyl)-N,N-dimethyl-5,6-dihydro-4H-[1,2,4]triazolo[4,3-a][1]benzazepin-5-amine] | 6.9 nM | 53 nM
25 | CCO[C@]1(C)CC[C@@H](c2nnc3n2-c2ccc(Cl)cc2CC(N(C)C)C3)CC1 (stereo partly drawn) [Example 234, 8-chloro-1-(trans-4-ethoxy-4-methylcyclohexyl)-N,N-dimethyl-5,6-dihydro-4H-[1,2,4]triazolo[4,3-a][1]benzazepin-5-amine] | 3.8 nM | 57 nM
26 | CO[C@]1(C(F)(F)F)CC[C@@H](c2nnc3n2-c2ccc(Cl)cc2CC2(C3)OCCO2)CC1 [Example 235, 8′-chloro-1′-[trans-4-methoxy-4-(trifluoromethyl)cyclohexyl]-4′H,6′H-spiro[1,3-dioxolane-2,5′-[1,2,4]triazolo[4,3-a][1]benzazepine]] | 0.3 nM | 22 nM
27 | CO[C@]1(C(F)(F)F)CC[C@H](c2nnc3n2-c2ccc(Cl)cc2CC2(C3)OCCO2)CC1 [Example 236, 8′-chloro-1′-[cis-4-methoxy-4-(trifluoromethyl)cyclohexyl]-4′H,6′H-spiro[1,3-dioxolane-2,5′-[1,2,4]triazolo[4,3-a][1]benzazepine]] | 0.9 nM | 4.2 nM
